Data taken from patent publication US20220249462A1, “COMPOSITIONS AND METHODS USING TRIGONELLINE TO PRODUCE INTRACELLULAR NAD+” (SOCIETE DES PRODUITS NESTLE S.A., priority 2019, published 2022).

How the values were obtained:
[1] = tested on: Human Skeletal Muscle Myotubes (HSMM); assay: Colorimetric NAD+ quantification in human primary myoblasts differentiated to myotubes, 16 h treatment; type: cell-based; conditions: different doses
Method: After one day, the differentiation is induced by a medium change for 4 days. Cells were treated with synthetic trigonelline monohydrate (FIG. 4A) or with Fenugreek seed extract enriched in trigonelline containing 40.45% trigonelline (FIG. 4B) for 16 h at difference doses. NAD+ was measured using colorimetric NAD+ quantification assay (Biovision NAD+/NADH Quantitation Colorimetric Kit #k337-100).

C57BL/6JRj male mice = assay: Liver NAD+ in mice after oral gavage; type: in vivo; conditions: equimolar of 300 mg/kg trigonelline, 120 minutes
Method: 10 weeks C57BL/6JRj male mice received trigonelline (sigma #T5509) or fenugreek seed extract enriched in trigonelline (40.45% trigonelline) by oral gavage (equimolar of 300 mg/kg trigonelline, n=8/group). After 120 minutes treatment, the liver was harvested and flash frozen in liquid nitrogen. NAD+ was measured in liver using an enzymatic method adapted from Dall, M., et al., Mol Cell Endocrinol, 2018. 473:p. 245-256.

C. elegans [2] = conditions: 1 mM, chronic exposure from Day 1 of adulthood, wild type N2
Method: Worm lifespan tests were performed using about 100 animals per condition and scored manually every other day. Trigonelline treatment and experimental measurements were started at Day 1 of wild type N2 worm adulthood, in a regimen of chronic exposure till experiments termination.

C. elegans [3] = conditions: 1 mM
Method: C. elegans mobility test was performed using the Movement Tracker software (Mouchiroud, L. et al. Curr Protoc Neurosci 77, 8.37.1-8.37.21 (2016)). The experiments were repeated at least twice. Trigonelline treatment and experimental measurements were started at Day 1 of wild type N2 worm adulthood, in a regimen of chronic exposure till experiments termination.

C. elegans [4] = conditions: 1 mM, day 8 and day 11 old worms
Source text: 45 to 60 worms per condition were manually scored for mobility after poking. Worms that were unable to respond to any repeated stimulation were scored as dead. […] Trigonelline treatment and experimental measurements were started at Day 1 of wild type N2 worm adulthood, in a regimen of chronic exposure til experiments termination.

[5] = tested on: Human Skeletal Muscle Myotubes (HSMM); conditions: 6 h
Method: Human primary myoblasts from two different donors were seeded in 6 well plates at a density of 200′000 cells per well in skeletal muscle growth medium (SKM-M, AMSbio). After one day, the differentiation was induced by a medium change for 4 days using differentiation culture medium (Gibco No. 31330-028). Cells were treated with isotopically labelled trigonelline (13C carbonyl; 32H on methyl) for 6 h.
Cell extracts were separated on a Vanquish UHPLC+focused LC system (Thermo Scientific) with a hydrophilic liquid chromatography (HILIC) iHILIC-Fusion(P) column (Hilicon) carrying the dimensions 150×2.1 mm, 5 μm and a guard column (iHILIC-fusion(P), Hilicon) in front. The separation of metabolites was achieved by applying a linear solvent gradient in normal phase at 0.25 mL/min flow rate and 35° C. of temperature. As mobile phase, solvent A was water with 10 mM ammonium acetate and 0.04% (v/v) ammonium hydroxide, pH ˜9.3, and solvent B was acetonitrile.
The eluting metabolites were analyzed with an Orbitrap Fusion Lumos mass spectrometer (Thermo Scientific) with a heated electrospray ionization (H-ESI) source in positive and negative mode at a resolution of 60,000 at m/z of 200. Instrument control and data analysis were conducted using Xcalibur (Thermo Scientific).

[6] = tested on: RW1596 (myo-3p::GFP) worms; conditions: 1 mM trigonelline chloride, 11 day old worms
Method: RW1596 (myo-3p::GFP) worms were collected at Day 1 (young adults) and at Day 11 (aged animals) for muscle integrity assessment. Worms were immobilized with tetramisole and analyzed by confocal microscopy, to assess the muscle fibers morphology shown by GFP fluorescence imaging. Trigonelline treatment with 1 mM trigonelline chloride and experimental measurements were started at Day 1 of wild type N2 worm adulthood, in a regimen of chronic exposure till experiments termination.

C. elegans [7] = conditions: 1 mM trigonelline chloride, day 8 old worms
Method: Absolute quantification of the mtDNA copy number in wild type N2 worms was performed by real-time PCR. Relative values for nduo-1, and act-1 were compared within each sample to generate a ratio representing the relative level of mitochondrial DNA per nuclear genome. The average of at least two technical repeats was used for each biological data point. Each experiment was performed on at least ten independent biological samples (individual worms). Trigonelline treatment with 1 mM trigonelline chloride and experimental measurements were started at Day 1 of wild type N2 worm adulthood, in a regimen of chronic exposure till experiments termination.

## C[n+]1cccc(C(=O)[O-])c1 [chemically synthesized trigonelline, trigonelline monohydrate]
[1]
  NAD+ content compared to the control: significant increase in NAD+ content
C57BL/6JRj male mice
  NAD+ content in the liver compared to the control: significant increase in NAD+ content in the liver

## C[n+]1cccc(C(=O)O)c1 [trigonelline chloride]
C. elegans [2]
  Increase of lifespan (survival curve): 21%
C. elegans [3]; advanced aging phase
  Distance travelled during spontaneous mobility assay compared to control: significantly increased
C. elegans [3]; from day 1 adulthood
  Mean speed during spontaneous mobility assay compared to the control: increased the mean speed
C. elegans [4]
  Stimulated mobility score (percentage of worms responsive to a physical stimulus): more responsive to a physical stimulus

## C[n+]1cccc(C(=O)[O-])c1 [trigonelline (13C-carbonyl, C2H3), reference compound]
[5]; 500 μM labelled trigonelline, compared to NAD+ in baseline conditions, corrected for natural abundance
  [13C]-isotopic enrichment of NAD+ (% of 13C-enrichment): 45%

## C[n+]1cccc(C(=O)[O-])c1 [trigonelline, 1-methylpyridin-1-ium-3-carboxylate]
[5]; 500 μM, human myotubes from 2 donors, LC-MS
  NAD+ levels relative to control: enhancement of NAD+ levels
[6]
  Myofibrillar structure (GFP-tagged myosin morphology) compared to age matched control: improved more organized myofibrillar structure
C. elegans [7]
  Mitochondrial (nduo-1) relative to nuclear (act-1) DNA ratio compared to control: higher than in the control group
